Data: PubChem BioAssay AID220 (DTP/NCI, 2004)
Results filed as inconclusive are left out.

System: CD8F1 mice, subcutaneous mammary adenocarcinoma, T/C%
Assay: NCI In Vivo Anticancer Drug Screen. Data for tumor model Mammary Adenocarcinoma CD8F1 (subcutaneous) in CD8F1
Conditions: higher = larger tumour
Procedure, shortened: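 Mice carrying transplanted tumors received test compound, and survival or tumor size was recorded. Each value is the treated-group measurement divided by the corresponding measurement in vehicle-dosed controls.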

[1] = endpoint: median tumor weight change, dose: 125.0 mg/kg/injection, schedule: Q01DX001 (ip), vehicle: saline with Tween-80
[2] = endpoint: median tumor weight change, dose: 2000.0 mg/kg/injection, schedule: Q01DX001 (ip), vehicle: saline with Tween-80

## Nc1ncn(C2OC(CO)C(O)C2O)c(=O)n1 (stereo not given)
endpoint: mean tumor weight (est.), dose: 2.0 mg/kg/injection, schedule: Q07DX003 (ip), vehicle: other
  T/C: 58 % of control
endpoint: mean tumor weight (est.), dose: 8.0 mg/kg/injection, schedule: Q07DX003 (ip), vehicle: other
  T/C: 32 % of control
endpoint: median tumor weight (est.), dose: 1.0 mg/kg/injection, schedule: Q07DX005 (ip), vehicle: saline
  T/C: 63 % of control
endpoint: median tumor weight (est.), dose: 2.0 mg/kg/injection, schedule: Q07DX005 (ip), vehicle: saline
  T/C: 81 % of control
endpoint: median tumor weight (est.), dose: 4.0 mg/kg/injection, schedule: Q07DX005 (ip), vehicle: saline
  T/C: 22 % of control
endpoint: median tumor weight (est.), dose: 8.0 mg/kg/injection, schedule: Q07DX005 (ip), vehicle: saline
  T/C: 20 % of control
endpoint: median tumor weight (est.), dose: 8.0 mg/kg/injection, schedule: Q07DX005 (ip), vehicle: suspension in saline
  T/C: 22 % of control
endpoint: median tumor weight (est.), dose: 16.0 mg/kg/injection, schedule: Q07DX005 (ip), vehicle: saline
  T/C: 3 % of control
endpoint: median tumor weight (est.), dose: 16.0 mg/kg/injection, schedule: Q07DX005 (ip), vehicle: suspension in saline
  T/C: 2 % of control
endpoint: median tumor weight change, dose: 3.75 mg/kg/injection, schedule: Q01DX001 (ip), vehicle: saline
  T/C: 89 % of control
endpoint: median tumor weight change, dose: 7.5 mg/kg/injection, schedule: Q01DX001 (ip), vehicle: saline
  T/C: 45 % of control
endpoint: median tumor weight change, dose: 15.0 mg/kg/injection, schedule: Q01DX001 (ip), vehicle: saline
  T/C: 38 % of control
endpoint: median tumor weight change, dose: 30.0 mg/kg/injection, schedule: Q01DX001 (ip), vehicle: saline
  T/C: 36 % of control
endpoint: median tumor weight change, dose: 62.5 mg/kg/injection, schedule: Q01DX001 (ip), vehicle: saline
  T/C: 123 % of control
endpoint: median tumor weight change, dose: 125.0 mg/kg/injection, schedule: Q01DX001 (ip), vehicle: saline
  T/C: 103 % of control
endpoint: median tumor weight change, dose: 135.0 mg/kg/injection, schedule: Q01DX001 (ip), vehicle: saline
  T/C: 44 % of control
endpoint: median tumor weight change, dose: 250.0 mg/kg/injection, schedule: Q01DX001 (ip), vehicle: saline
  T/C: 86 % of control
endpoint: median tumor weight change, dose: 500.0 mg/kg/injection, schedule: Q01DX001 (ip), vehicle: saline
  T/C: 106 % of control
endpoint: median tumor weight change, dose: 600.0 mg/kg/injection, schedule: Q01DX001 (ip), vehicle: suspension in saline
  T/C: 17 % of control
endpoint: median tumor weight change, dose: 1000.0 mg/kg/injection, schedule: Q01DX001 (ip), vehicle: saline
  T/C: 103 % of control
endpoint: median tumor weight change, dose: 1350.0 mg/kg/injection, schedule: Q01DX001 (ip), vehicle: suspension in saline
  T/C: -11 % of control
endpoint: median tumor weight change, dose: 1800.0 mg/kg/injection, schedule: Q01DX001 (ip), vehicle: suspension in saline
  T/C: 60 % of control
endpoint: median tumor weight change, dose: 2025.0 mg/kg/injection, schedule: Q01DX001 (ip), vehicle: suspension in saline
  T/C: 16 % of control
endpoint: median tumor weight change, dose: 3600.0 mg/kg/injection, schedule: Q01DX001 (ip), vehicle: suspension in saline
  T/C: 43 % of control

## Cc1nc(N)nc(N)c1-c1ccc(Cl)c(Cl)c1
endpoint: mean tumor weight (est.), dose: 10.0 mg/kg/injection, schedule: Q07DX003 (ip), vehicle: saline with Tween-80
  T/C: 120 % of control
endpoint: median tumor weight change, dose: 12.5 mg/kg/injection, schedule: Q01DX001 (ip), vehicle: saline with Tween-80
  T/C: 20 % of control
endpoint: median tumor weight change, dose: 12.5 mg/kg/injection, schedule: Q01DX001 (ip), vehicle: suspension in saline
  T/C: 79 % of control
endpoint: median tumor weight change, dose: 25.0 mg/kg/injection, schedule: Q01DX001 (ip), vehicle: saline with Tween-80
  T/C: 50 % of control
endpoint: median tumor weight change, dose: 25.0 mg/kg/injection, schedule: Q01DX001 (ip), vehicle: suspension in saline
  T/C: 38 % of control
endpoint: median tumor weight change, dose: 50.0 mg/kg/injection, schedule: Q01DX001 (ip), vehicle: saline with Tween-80
  T/C: 8 % of control
endpoint: median tumor weight change, dose: 50.0 mg/kg/injection, schedule: Q01DX001 (ip), vehicle: suspension in saline
  T/C: 12 % of control

## O=C1CN(CCN2CC(=O)N(CN3CCOCC3)C(=O)C2)CC(=O)N1CN1CCOCC1
endpoint: median tumor weight change, dose: 15.62 mg/kg/injection, schedule: Q01DX001 (ip), vehicle: water
  T/C: 53 % of control
endpoint: median tumor weight change, dose: 31.25 mg/kg/injection, schedule: Q01DX001 (ip), vehicle: water
  T/C: 64 % of control
endpoint: median tumor weight change, dose: 62.5 mg/kg/injection, schedule: Q01DX001 (ip), vehicle: water
  T/C: 96 % of control
endpoint: median tumor weight change, dose: 125.0 mg/kg/injection, schedule: Q01DX001 (ip), vehicle: water
  T/C: 40 % of control

## COc1ccc2c(c1)C(O)(CN)CCCCC(OC)CCCC2 (stereo not given)
endpoint: median tumor weight change, dose: 62.5 mg/kg/injection, schedule: Q01DX001 (ip), vehicle: Klucel (hydroxypropylcellulose) (HPC)
  T/C: 121 % of control

## O=c1cnn(C2OC(CO)C(O)C2O)c(=O)[nH]1 (stereo not given)
endpoint: mean tumor weight, dose: 125.0 mg/kg/injection, schedule: Q07DX004 (ip), vehicle: saline
  T/C: 67 % of control
endpoint: mean tumor weight, dose: 250.0 mg/kg/injection, schedule: Q07DX004 (ip), vehicle: saline
  T/C: 49 % of control
endpoint: median tumor weight (est.), dose: 100.0 mg/kg/injection, schedule: Q07DX005 (ip), vehicle: saline with Tween-80
  T/C: 63 % of control
endpoint: median tumor weight (est.), dose: 100.0 mg/kg/injection, schedule: Q07DX005 (ip), vehicle: saline
  T/C: 17 % of control
endpoint: median tumor weight (est.), dose: 200.0 mg/kg/injection, schedule: Q07DX005 (ip), vehicle: saline with Tween-80
  T/C: 95 % of control
endpoint: median tumor weight (est.), dose: 200.0 mg/kg/injection, schedule: Q07DX005 (ip), vehicle: saline
  T/C: 63 % of control
endpoint: median tumor weight (est.), dose: 400.0 mg/kg/injection, schedule: Q07DX005 (ip), vehicle: saline with Tween-80
  T/C: 53 % of control
endpoint: median tumor weight (est.), dose: 400.0 mg/kg/injection, schedule: Q07DX005 (ip), vehicle: saline
  T/C: 41 % of control
endpoint: median tumor weight (est.), dose: 800.0 mg/kg/injection, schedule: Q07DX005 (ip), vehicle: saline with Tween-80
  T/C: 66 % of control
endpoint: median tumor weight (est.), dose: 800.0 mg/kg/injection, schedule: Q07DX005 (ip), vehicle: saline
  T/C: 64 % of control
endpoint: median tumor weight (est.), dose: 1600.0 mg/kg/injection, schedule: Q07DX005 (ip), vehicle: saline with Tween-80
  T/C: 68 % of control
endpoint: median tumor weight (est.), dose: 3200.0 mg/kg/injection, schedule: Q07DX005 (ip), vehicle: saline with Tween-80
  T/C: 54 % of control
endpoint: median tumor weight (est.), dose: 3200.0 mg/kg/injection, schedule: Q07DX005 (ip), vehicle: saline
  T/C: 76 % of control

## CS(=O)(=O)CS(=O)(=O)OCCCl
endpoint: median tumor weight change, dose: 125.0 mg/kg/injection, schedule: Q01DX001 (ip), vehicle: suspension in saline
  T/C: 56 % of control
endpoint: median tumor weight change, dose: 250.0 mg/kg/injection, schedule: Q01DX001 (ip), vehicle: suspension in saline
  T/C: 68 % of control

## COc1cc2c(c(OC)c1O)-c1ccc(OC)c(=O)cc1[C@@H](NC(=O)C(F)(F)F)CC2
endpoint: median tumor weight change, dose: 3.12 mg/kg/injection, schedule: Q01DX001 (ip), vehicle: Klucel (hydroxypropylcellulose) (HPC)
  T/C: 100 % of control
endpoint: median tumor weight change, dose: 6.25 mg/kg/injection, schedule: Q01DX001 (ip), vehicle: Klucel (hydroxypropylcellulose) (HPC)
  T/C: 203 % of control
endpoint: median tumor weight change, dose: 12.5 mg/kg/injection, schedule: Q01DX001 (ip), vehicle: Klucel (hydroxypropylcellulose) (HPC)
  T/C: 74 % of control
endpoint: median tumor weight change, dose: 25.0 mg/kg/injection, schedule: Q01DX001 (ip), vehicle: Klucel (hydroxypropylcellulose) (HPC)
  T/C: 168 % of control
endpoint: median tumor weight change, dose: 50.0 mg/kg/injection, schedule: Q01DX001 (ip), vehicle: Klucel (hydroxypropylcellulose) (HPC)
  T/C: 21 % of control

## Cc1c2ccccc2cc2cccc[n+]12
endpoint: median tumor weight change, dose: 20.0 mg/kg/injection, schedule: Q01DX001 (ip), vehicle: saline
  T/C: 116 % of control
endpoint: median tumor weight change, dose: 25.0 mg/kg/injection, schedule: Q01DX001 (ip), vehicle: saline
  T/C: 123 % of control
endpoint: median tumor weight change, dose: 40.0 mg/kg/injection, schedule: Q01DX001 (ip), vehicle: saline
  T/C: 119 % of control
endpoint: median tumor weight change, dose: 50.0 mg/kg/injection, schedule: Q01DX001 (ip), vehicle: saline
  T/C: 59 % of control

## CN(C)N=Nc1ccccc1
endpoint: median tumor weight (est.), dose: 25.0 mg/kg/injection, schedule: Q07DX005 (ip), vehicle: Klucel (hydroxypropylcellulose) (HPC)
  T/C: 87 % of control
endpoint: median tumor weight (est.), dose: 100.0 mg/kg/injection, schedule: Q07DX005 (ip), vehicle: Klucel (hydroxypropylcellulose) (HPC)
  T/C: 78 % of control

## CCCCCCC(=O)CC(SCC)c1ccccc1Cl (stereo not given)
[1]
  T/C: 108 % of control
endpoint: median tumor weight change, dose: 250.0 mg/kg/injection, schedule: Q01DX001 (ip), vehicle: saline with Tween-80
  T/C: 72 % of control
endpoint: median tumor weight change, dose: 500.0 mg/kg/injection, schedule: Q01DX001 (ip), vehicle: saline with Tween-80
  T/C: 77 % of control
endpoint: median tumor weight change, dose: 1000.0 mg/kg/injection, schedule: Q01DX001 (ip), vehicle: saline with Tween-80
  T/C: 72 % of control
[2]
  T/C: 86 % of control

## CCc1nc(N)nc(N)c1-c1ccc(Cl)c(N=[N+]=[N-])c1
endpoint: median tumor weight change, dose: 62.5 mg/kg/injection, schedule: Q01DX001 (ip), vehicle: saline with Tween-80
  T/C: 57 % of control
[1]
  T/C: 78 % of control
[2]
  T/C: 24 % of control

## CCC12C[N+]3([O-])CCc4c([nH]c5ccccc45)C(C(=O)OC)(c4cc5c(cc4OC)N(C)C4C(O)(C(=O)OC)C(OC(C)=O)C6(CC)C=CCN7CCC54C76)CC(C3)C1O2 (stereo not given)
endpoint: median tumor weight change, dose: 6.25 mg/kg/injection, schedule: Q01DX001 (ip), vehicle: water
  T/C: 199 % of control
endpoint: median tumor weight change, dose: 12.5 mg/kg/injection, schedule: Q01DX001 (ip), vehicle: water
  T/C: 73 % of control
endpoint: median tumor weight change, dose: 25.0 mg/kg/injection, schedule: Q01DX001 (ip), vehicle: water
  T/C: 87 % of control
endpoint: median tumor weight change, dose: 50.0 mg/kg/injection, schedule: Q01DX001 (ip), vehicle: water
  T/C: 92 % of control
endpoint: median tumor weight change, dose: 100.0 mg/kg/injection, schedule: Q01DX001 (ip), vehicle: water
  T/C: 81 % of control
